Reference: PMC4660440 (Scientific Reports, 2015)

Experiments:
[1] = tested on: HeLa; experiment: MTT cytotoxicity assay, HeLa; assay type: cell-based; details: Homo sapiens, HeLa, 48 h, drug exposure 48 h, mean ± SD (n = 3), read-out: Cytotoxic activity (IC50) HeLa
Method: (§1) HeLa, BGC823, A-549, MCF-7 and HT-7702 cell lines were obtained from the ATCC. […] Tumor cells (3500–13,000) were seeded into 96-well microtest plates in 100 μL of culture medium per well, incubated for 48 h in the presence or absence of test compounds (8 different concentrations ranging from 100 to 0.01 μg/mL). For quantitative estimation of cytotoxicity, the (MTT) method was used, essentially performed as described previously. Briefly, cells were washed twice with PBS, fixed for 15 min in 1% glutaraldehyde solution, rinsed twice in PBS, and stained in 0.5% MTT solution for 4 h at 37 °C. […] The initial seeding densities varied among the cell lines to ensure a final absorbance reading in control (untreated) cultures within the range of 0.6–0.8 A492 units. Drug exposure was carried out for 2 days, and the IC50 value, i.e., the drug concentration that decreased the absorbance by 50%, was extrapolated from dose-response data. Each test was performed in triplicate, and the absorbance readings between the triplicates varied by no more than 10%.

[2] = tested on: A549; experiment: MTT cytotoxicity assay, A549; assay type: cell-based; details: Homo sapiens, A549, drug exposure 48 h, mean ± SD (n = 3), read-out: Cytotoxic activity (IC50) A549
Method: as §1

[3] = MTT cytotoxicity assay, normal hepatic cell line HL-7702; assay type: cell-based; details: HL-7702 normal hepatic cells, human normal hepatic immortal cell line, drug exposure 48 h, mean ± SD (n = 3), read-out: Cytotoxic activity (IC50) HL-7702
Method: as §1

[4] = tested on: HeLa cells; experiment: Annexin V-FITC/PI apoptosis assay; details: 0.1 μM, 6, 12, 24 and 48 h
Method: The HeLa cell line was used for cell apoptosis. Cells (20000 per mL) were incubated with several concentrations of the compounds or drugs for 6–48 h, and incubated in DMEM medium supplemented with 12% fetal calf serum (FCS), 2 mM L -glutamine, and 100 mg/L penicillin G and 100 mg/L streptomycin at 37 °C and 5% CO2. The cells were washed with PBS twice, centrifuged at 206 g for 5 min, and 5–10[5] cells were collected. Binding buffer suspension (500 μL) was added to the cells, and then 5 μL of the FITC-Annexin V mix was added. Next, 10 μL of the PI mix was added, and the suspension was mixed and kept at room temperature for 30 min in the dark. Analysis was with a BD accur C6 flow cytometer.

[5] = tested on: MCF-7; experiment: MTT cytotoxicity assay, MCF-7; assay type: cell-based; details: Homo sapiens, MCF7, drug exposure 48 h, mean ± SD (n = 3), read-out: Cytotoxic activity (IC50) MCF-7
Method: as §1

[6] = tested on: BGC-823; experiment: MTT cytotoxicity assay, BGC-823; assay type: cell-based; details: Homo sapiens, BGC-823, drug exposure 48 h, mean ± SD (n = 3), read-out: Cytotoxic activity (IC50) BGC-823
Method: as §1

[7] = tested on: HeLa cells; experiment: Cell cycle analysis by flow cytometry (PI); assay type: cell-based; details: for Effect on HeLa cell cycle: 0.1, 1.0, 5.0 μM, 6, 12, 24, 48 h; for Ratio of cell cycle arrest (of total cells): 0.1 μM, 6, 12, 24 and 48 h
Method: The HeLa cell line was used for cell cycle analysis. Progression through the cell cycle was assessed by flow cytometry DNA determination with Propidium Iodide (PI). […] Flow cytometric analysis was performed using a BD accur C6 flow cytometer. Analysis was with Mod FIT software.

[8] = tested on: BimEL, ATR, caspase 3, caspase 8, caspase 9, PARP in HeLa cells; experiment: Western blot analysis of apoptosis proteins; assay type: cell-based; details: 5 μM, 24 h treatment, untreated control 0%, etoposide-induced activation 100%
Method: For electrophoresis, the proteins were separated by sodium dodecyl sulfate–polyacrylamide gel electro-phoresis (SDS–PAGE). The proteins were then transferred to a nitrocellulose membrane, which was blocked with 5% skimmed milk in phosphate buffered saline Tween-20 (PBST). A specific primary antibody was added to bind the target proteins for either 1 h at room temperature or overnight at 4 °C. A horseradish peroxidase (HRP) conjugated secondary antibody was added to the membrane after the primary antibody was washed off. All signals were detected after the HRP was activated by enhanced chemiluminescence. The band intensities of Western results were quantitated with the Image Quant program (Molecular Dynamics Inc.), analyzed and graphed. The untreated controls and the etoposideinduced activation of signaling molecules were taken as 0% and 100%, respectively. Statistic analysis was performed with the uni-polar, paired Student t-test. Data were considered significant when P value was less than 0.05.

[9] = tested on: microtubules in HeLa cells; experiment: Immunofluorescence of cellular microtubules; assay type: cell-based; details: 12 and 24 h, compared with negative control 0.1% DMSO
Method: Cells (20000 per mL) were plated a onto 6-well tissue culture plates containing 12 mm round coverslips, cultured overnight, and then treated with different drugs at […] concentrations or drug vehicle (0.1% DMSO) for 12 h and 24 h. Attached cells were permeabilized. Cytoskeletons were incubated with α-tubulin, washed twice, and incubated with FITC goat anti-mouse immunoglobulins. The coverslips were washed, and 1 μg/mL DAPI to stain chromatin was added. The mixture was incubated for 30 min. After the samples were washed, they were examined and photographed using an Olympus epifluorescence microscope. The images were recorded with a Perkin Elmer camera.

Compound | IC50 [1] [µM] | IC50 [2] [µM] | IC50 at 48 h [3] [µM] | Ratio of apoptotic Hela cells (of total cells) [4] | IC50 [5] [µM] | IC50 [6] [µM] | Effect on HeLa cell cycle [7] | Ratio of cell cycle arrest (of total cells) ([7]; HeLa) | Extent of compound-induced ATR [8] [%] | Extent of compound-induced PARP [8] [%] | Extent of compound-induced caspase 3 [8] [%] | Extent of compound-induced caspase 9 [8] [%] | Cellular depolymerization of microtubules [9] | Total cell cycle arrest percentage (right peak of histogram) ([7]; HeLa, 5.0 μM, 48 h) [%] | Extent of compound-induced BimEL [8] [%] | Percentage of cell cycle arrest (right peak of histogram) ([7]; HeLa, 5.0 μM, 12 h) [%]
COc1ccc(N[C@@H]2c3cc4c(cc3[C@@H](c3cc(OC)c(O)c(OC)c3)[C@H]3C(=O)OC[C@@H]32)OCO4)cc1Cl [Compound 18′, 4β-NH-(3-chloride-4-methoxyaniline)-4-deoxy-4′-demethylepipodophyllotoxin] | 1.97 ± 0.16 | 3.04 ± 0.23 | 127.4 ± 0.46 | less than 15% | 3.18 ± 0.51 | 1.77 ± 0.23 | arrested at the G2/M phase | less than 10% | 46 | 54 | 69 | 35 | – | – | – | –
COc1ccc(N[C@@H]2c3cc4c(cc3[C@@H](c3cc(OC)c(O)c(OC)c3)[C@H]3C(=O)OC[C@@H]32)OCO4)cc1 [Compound 12′] | 24.46 ± 0.16 | 22.3 ± 1.21 | 28.6 ± 2.35 | less than 15% | 18.8 ± 0.24 | 36 ± 3.21 | arrested at the G2/M phase | less than 10% | – | – | – | – | – | – | – | –
COc1ccc(N[C@@H]2c3cc4c(cc3[C@@H](c3cc(OC)c(OC)c(OC)c3)[C@H]3C(=O)OC[C@@H]32)OCO4)cc1Br [Compound 17, 4β-NH-(3-bromide-4-methoxyaniline)-4-deoxy-podophyllotoxin] | – | 9.08 ± 0.26 | 62.4 ± 1.96 | less than 15% | 10.1 ± 0.18 | 7.91 ± 0.59 | arrested at the G2/M phase | less than 10% | – | 27 | 37 | 0 | able to cause cellular depolymerization of microtubules | 86.5 | 15 | –
COc1ccc(Br)cc1N[C@@H]1c2cc3c(cc2[C@@H](c2cc(OC)c(O)c(OC)c2)[C@H]2C(=O)OC[C@@H]21)OCO3 [Compound 14′] | 6.47 ± 0.17 | 54.3 ± 4.49 | 87.6 ± 5.04 | – | 4.21 ± 0.25 | 22.2 ± 2.02 | – | – | – | – | – | – | – | – | – | –
COc1cc([C@@H]2c3cc4c(cc3[C@@H](Nc3ccc(Br)cc3)[C@H]3COC(=O)[C@H]23)OCO4)cc(OC)c1OC [Compound 8] | 42.1 ± 0.91 | 52.9 ± 4.36 | 27.1 ± 2.31 | – | 19.7 ± 0.62 | 46.2 ± 2.97 | – | – | – | – | – | – | – | – | – | –
COc1cc([C@@H]2c3cc4c(cc3[C@@H](Nc3ccccc3Br)[C@H]3COC(=O)[C@H]23)OCO4)cc(OC)c1O [2′] | 31.3 ± 1.43 | 44.9 ± 3.12 | 47.4 ± 3.14 | – | 27.6 ± 0.91 | 28.7 ± 1.04 | – | – | – | – | – | – | – | – | – | –
COc1ccc(N[C@@H]2c3cc4c(cc3[C@@H](c3cc(OC)c(O)c(OC)c3)[C@H]3C(=O)OC[C@@H]32)OCO4)cc1F [Compound 19′, 4β-NH-(3-fluoro-4-methoxyaniline)-4-deoxy-4′-demethylepipodophyllotoxin] | 0.56 ± 0.12 | 1.2 ± 0.25 | 188 ± 7.33 | less than 15% | 1.32 ± 0.24 | 0.4 ± 0.07 | arrested at the G2/M phase | less than 10% | – | – | – | – | – | – | – | 84.9
COc1cc([C@@H]2c3cc4c(cc3[C@@H](Nc3cccc(F)c3)[C@H]3COC(=O)[C@H]23)OCO4)cc(OC)c1O [Compound 7′] | 5.07 ± 0.31 | 3.88 ± 0.33 | 21.4 ± 1.57 | – | 3.14 ± 0.15 | 2.24 ± 0.06 | – | – | – | – | – | – | – | – | – | –
COc1cc([C@@H]2c3cc4c(cc3[C@@H](Nc3ccc(Br)cc3)[C@H]3COC(=O)[C@H]23)OCO4)cc(OC)c1O [Compound 8′] | 21.07 ± 0.17 | 62.4 ± 3.66 | 32.1 ± 0.96 | – | 28.9 ± 1.06 | 62.1 ± 4.39 | – | – | – | – | – | – | – | – | – | –
COc1cc([C@@H]2c3cc4c(cc3[C@@H](Nc3cccc(Br)c3)[C@H]3COC(=O)[C@H]23)OCO4)cc(OC)c1O [Compound 5′] | 8.83 ± 0.12 | 11.8 ± 0.74 | 44.3 ± 1.78 | – | 10.7 ± 1.48 | 13.6 ± 0.16 | – | – | – | – | – | – | – | – | – | –
COc1ccc(Cl)cc1N[C@@H]1c2cc3c(cc2[C@@H](c2cc(OC)c(O)c(OC)c2)[C@H]2C(=O)OC[C@@H]21)OCO3 [Compound 15′] | 5.89 ± 0.48 | 29.7 ± 1.67 | 67.6 ± 4.32 | – | 2.16 ± 0.37 | 27.1 ± 1.17 | – | – | – | – | – | – | – | – | – | –
COc1cc([C@@H]2c3cc4c(cc3[C@@H](Nc3ccccc3Cl)[C@H]3COC(=O)[C@H]23)OCO4)cc(OC)c1OC [Compound 3] | 26.7 ± 1.32 | 27.2 ± 1.95 | 13.2 ± 1.35 | – | 21.1 ± 0.76 | 18.1 ± 1.03 | – | – | – | – | – | – | – | – | – | –
COc1cc([C@@H]2c3cc4c(cc3[C@@H](Nc3cccc(Cl)c3)[C@H]3COC(=O)[C@H]23)OCO4)cc(OC)c1OC [Compound 6] | 5.43 ± 0.27 | 7.23 ± 0.95 | 35.27 ± 0.21 | – | 6.57 ± 0.15 | 9.32 ± 1.79 | – | – | – | – | – | – | – | – | – | –
COc1ccc(F)cc1N[C@@H]1c2cc3c(cc2[C@@H](c2cc(OC)c(OC)c(OC)c2)[C@H]2C(=O)OC[C@@H]21)OCO3 [Compound 16] | 1.46 ± 0.19 | 1.43 ± 0.09 | 27.7 ± 0.77 | – | 1.92 ± 0.23 | 1.37 ± 0.17 | – | – | – | – | – | – | – | – | – | –
